According to ChEMBL document CHEMBL1155096, “A regiospecific synthesis of a series of 1-sulfonyl azepinoindoles as potent 5-HT6 ligands” (Bioorg Med Chem Lett, 2008):
Activity calls are given as the source filed them. The calls are words filed in the database; no cut-off is given here.

How the values were obtained:
[1] = target: T1, 5-hydroxytryptamine receptor 6 (Homo sapiens, UniProt P50406); assay: Antagonist activity at cloned human 5HT6 receptor expressed in HeLa cells assessed as production of cAMP; assay type: functional, cell-based
[2] = target: T1, 5-hydroxytryptamine receptor 6; assay: Displacement of [3H]-LSD from cloned human 5HT6 receptor expressed in HeLa cells; assay type: cell-based
[3] = target: T2, 5-hydroxytryptamine receptor 2C (Homo sapiens, UniProt P28335); assay: Inhibition of 5HT2C
T2 sequence (P28335 whole entry): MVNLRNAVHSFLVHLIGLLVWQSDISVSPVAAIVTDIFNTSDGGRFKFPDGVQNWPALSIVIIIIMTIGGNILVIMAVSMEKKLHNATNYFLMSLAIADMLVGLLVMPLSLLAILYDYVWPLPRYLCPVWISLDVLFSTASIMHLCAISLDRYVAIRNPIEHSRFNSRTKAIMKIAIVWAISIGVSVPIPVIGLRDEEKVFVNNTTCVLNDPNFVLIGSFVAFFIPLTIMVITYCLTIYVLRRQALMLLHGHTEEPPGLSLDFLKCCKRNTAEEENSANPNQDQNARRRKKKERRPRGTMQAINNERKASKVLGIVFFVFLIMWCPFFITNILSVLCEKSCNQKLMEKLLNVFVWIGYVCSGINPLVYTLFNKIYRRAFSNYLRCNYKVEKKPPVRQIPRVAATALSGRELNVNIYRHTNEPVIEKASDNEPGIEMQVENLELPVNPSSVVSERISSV

T1 sequence (P50406 whole entry): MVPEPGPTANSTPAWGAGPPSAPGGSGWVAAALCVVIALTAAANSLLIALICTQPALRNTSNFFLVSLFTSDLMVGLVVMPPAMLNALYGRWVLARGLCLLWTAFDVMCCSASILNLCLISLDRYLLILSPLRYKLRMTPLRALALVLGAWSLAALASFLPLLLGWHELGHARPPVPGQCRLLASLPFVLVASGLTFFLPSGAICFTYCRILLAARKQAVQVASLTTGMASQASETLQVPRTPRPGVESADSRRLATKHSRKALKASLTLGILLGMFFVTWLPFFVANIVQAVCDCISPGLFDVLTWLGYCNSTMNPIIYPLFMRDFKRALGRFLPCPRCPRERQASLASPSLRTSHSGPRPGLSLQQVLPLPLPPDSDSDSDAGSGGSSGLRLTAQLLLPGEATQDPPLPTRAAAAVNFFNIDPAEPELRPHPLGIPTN

Structure (SMILES) | IC50 [1] [µM] | Ki [2] [µM] | Ki [3] [µM] | Activity [1]
COc1ccccc1S(=O)(=O)n1c2c(c3ccccc31)CCNCC2 | 0.162 | 0.019 | 0.014 | 
O=S(=O)(c1ccc(Cl)cc1)n1c2c(c3ccccc31)CCNCC2 |  | 0.018 |  | Active
O=S(=O)(c1ccc(C(F)(F)F)cc1)n1c2c(c3ccccc31)CCNCC2 |  | 0.046 |  | Active
COc1cccc(S(=O)(=O)n2c3c(c4ccccc42)CCN(C2CCCCC2)CC3)c1 |  | 0.253 |  | Active
COc1cccc(S(=O)(=O)n2c3c(c4ccccc42)CCN(CCc2ccccc2)CC3)c1 |  | 0.504 |  | Active
CCN1CCc2c(n(S(=O)(=O)c3cccc(OC)c3)c3ccccc23)CC1 |  | 0.05 |  | Active
CCCN1CCc2c(n(S(=O)(=O)c3cccc(OC)c3)c3ccccc23)CC1 |  | 0.124 |  | Active
COc1cccc(S(=O)(=O)n2c3c(c4ccccc42)CCN(C2CCCC2)CC3)c1 |  | 0.324 |  | Active
O=S(=O)(c1cccc(C(F)(F)F)c1)n1c2c(c3ccccc31)CCNCC2 |  | 0.089 |  | Active
O=S(=O)(c1cccc(F)c1)n1c2c(c3ccccc31)CCNCC2 |  | 0.033 |  | Active
COc1ccc(S(=O)(=O)n2c3c(c4ccccc42)CCNCC3)cc1 |  | 0.033 |  | Active
O=S(=O)(c1ccc(F)cc1)n1c2c(c3ccccc31)CCNCC2 |  | 0.023 |  | Active
Cc1cccc(S(=O)(=O)n2c3c(c4ccccc42)CCNCC3)c1 |  | 0.068 |  | Active
O=S(=O)(c1ccc2c(Cl)cccc2c1)n1c2c(c3ccccc31)CCNCC2 |  | 0.024 |  | Active
O=S(=O)(c1ccccc1)n1c2c(c3ccccc31)CCNCC2 |  | 0.193 |  | Active
COc1cccc(S(=O)(=O)n2c3c(c4ccccc42)CCN(Cc2ccccc2)CC3)c1 |  | 0.319 |  | Active
O=S(=O)(c1ccccc1Cl)n1c2c(c3ccccc31)CCNCC2 |  | 0.019 |  | Active
Cc1ccc(S(=O)(=O)n2c3c(c4ccccc42)CCNCC3)cc1 |  | 0.029 |  | Active
O=S(=O)(c1cccc(Cl)c1)n1c2c(c3ccccc31)CCNCC2 |  | 0.041 |  | Active
CCN1CCc2c(n(S(=O)(=O)c3ccccc3)c3ccccc23)CC1 |  | 0.012 |  | Active
COc1cccc(S(=O)(=O)n2c3c(c4ccccc42)CCN(C)CC3)c1 |  | 0.019 |  | Active
COc1cccc(S(=O)(=O)n2c3c(c4ccccc42)CCNCC3)c1 |  | 0.012 |  | Active
COc1cccc(S(=O)(=O)n2c3c(c4ccccc42)CCN(C(C)C)CC3)c1 |  | 0.085 |  | Active
